Patent publication EP1016409B1, “FREEZE DRIED COMPOSITION COMPRISING GLYCOSPHINGOLIPIDS” (KIRIN BEER KABUSHIKI KAISHA, priority 1997, dated 1998)

Key:
Format in all cases: physicochemical
[1] = Optimal formulation: re-solubility after storage; conditions: lyophilized, KRN7000 200 µg/ml, Polysorbate 20 0.5%
Experimental: (§1) First, Polysorbate 20 was dissolved in distilled water in a concentration of 0.5%, and sucrose and histidine or sodium deoxycholate in such concentrations listed on Table 11. Next, 20 mg of the active component (KRN7000) was weighed and stirred in 100 ml of the solvents in a heated bath to 80°C for 20 minutes in order to form a solution. After cooling with running water, the mixture was filtered through a 0.22 µm filter, and transparent colorless glass vials having a volume of 5 ml were charged with a 1 ml portion of each of a variety of solutions thus obtained and subjected to lyophilization. Lyophilization was carried out under the condition of preliminary freezing at -40°C for 2 hours and drying at -20°C for 24 hours, 10°C for 12 hours, and finally at 25°C for 5 hours to give the lyophilized product. The degree of vacuum was set at 0.1 Torr or less during drying step.
After the lyophilization step, the lyophilized composition thus obtained was stored at 25°C or 50°C. After storage at 25°C for 2 months or at 50°C for 2 weeks, the lyophilized composition was reconstituted in 1 ml of distilled water for injection, left standing for 30 minutes, and solubility was judged when the foams generated on reconstitution disappeared. The samples judged to be solution after storage at 25°C for 2 months were further stored, and judged again of their solubility after storage for 4 months.
(§2) The solubility was judged by cleaning the outside of the vial and placing it beneath the white light source in a darkroom for observation with naked eye at the position of a luminous intensity of about 5,000 lux. When the sample was clear with no precipitates, it was judged that the active component was dissolved.

[2] = Excipient appropriate to lyophilization 1: re-solubility immediately after lyophilization; conditions: KRN7000 200 µg/ml, Polysorbate 20 0.5%
Experimental: A variety of monosaccharides and disaccharides were used for examination of excipients of the lyophilized preparation. In this context, the active component (KRN7000) was set at the concentration of 200 µg/ml, and Polysorbate 20 which is used only in a limited amount from the viewpoint of safety was set at the concentration of 0.5% in the following examination.
as §1, with “and the saccharides were dissolved” for “and sucrose and histidine or sodium deoxycholate”, “concentrations as” for “concentrations”, “listed in” for “listed on”, “Table 6.” for “Table 11.”
After the lyophilization step, the lyophilized composition was reconstituted in 1 ml of distilled water for injection, left standing for 30 minutes, and solubility was judged when the foams generated on reconstitution disappeared.
as §2

[3] = Optimal amount of Polysorbate 20: solubility of the solution after storage, by naked eye; set-up: key: + not dissolved (or deposited); - dissolved; conditions: KRN7000 200 µg/ml, 25°C
Experimental: Next, 20 mg of the active component (KRN7000) was weighed and stirred in 100 ml of the Polysorbate solutions having a variety of concentrations in a heated bath at 80°C for 20 minutes in order to form a solution. After cooling with running water, the mixture was filtered through a 0.22 µm filter, and transparent colorless glass vials having a volume of 5 ml were charged with a 2 ml portion of each of a variety of solutions and sealed up.
These samples were stored at 25°C for 2 weeks, and judged of their solubility. The samples judged in solution were further stored, and judged again of their solubility after 1 month.
as §2, with “in the” for “in a”

Re-solubility after storage (by naked eye) ([1]; Sucrose 1.1%, Histidine, 4%, 50°C, 2 weeks): + (+ not dissolved (or deposited))
Re-solubility after storage (by naked eye) ([1]; Sucrose 3.1%, Histidine, 3%, 50°C, 2 weeks): - (- dissolved)
Re-solubility after storage (by naked eye) ([1]; Sucrose 3.2%, Histidine, 2%, 50°C, 2 weeks): - (- dissolved)
Re-solubility after storage (by naked eye) ([1]; Sucrose 4.8%, Sodium deoxycholate, 0.2%, 25°C, 2 months): + (+ not dissolved (or deposited))
Re-solubility after storage (by naked eye) ([1]; Sucrose 4.8%, Sodium deoxycholate, 0.5%, 25°C, 2 months): - (- dissolved)
Re-solubility after storage (by naked eye) ([1]; Sucrose 4.8%, Sodium deoxycholate, 0.5%, 25°C, 4 months): - (- dissolved)
Re-solubility after storage (by naked eye) ([1]; Sucrose 4.8%, Sodium deoxycholate, 1%, 25°C, 2 months): - (- dissolved)
Re-solubility after storage (by naked eye) ([1]; Sucrose 4.8%, Sodium deoxycholate, 1%, 25°C, 4 months): - (- dissolved)
Re-solubility after storage (by naked eye) ([1]; Sucrose 4.8%, Sodium deoxycholate, 2%, 25°C, 2 months): - (- dissolved)
Re-solubility after storage (by naked eye) ([1]; Sucrose 4.8%, Sodium deoxycholate, 2%, 25°C, 4 months): - (- dissolved)
Re-solubility after storage (by naked eye) ([1]; Sucrose 5.0%, Histidine, 2%, 50°C, 2 weeks): - (- dissolved)
Re-solubility after storage (by naked eye) ([1]; Sucrose 5.1%, Histidine, 1%, 50°C, 2 weeks): - (- dissolved)
Re-solubility after storage (by naked eye) ([1]; Sucrose 6.9%, Histidine, 1%, 50°C, 2 weeks): - (- dissolved)
Re-solubility after storage (by naked eye) ([1]; Sucrose 7.9%, Histidine, 0.5%, 50°C, 2 weeks): + (+ not dissolved (or deposited))
Re-solubility after storage (by naked eye) ([1]; Sucrose 9.6%, Histidine, 2%, 50°C, 2 weeks): - (- dissolved)
Re-solubility after storage (by naked eye) ([1]; Sucrose 9.6%, Sodium deoxycholate, 0.2%, 25°C, 2 months): + (+ not dissolved (or deposited))
Re-solubility after storage (by naked eye) ([1]; Sucrose 9.6%, Sodium deoxycholate, 0.5%, 25°C, 2 months): - (- dissolved)
Re-solubility after storage (by naked eye) ([1]; Sucrose 9.6%, Sodium deoxycholate, 0.5%, 25°C, 4 months): - (- dissolved)
Re-solubility after storage (by naked eye) ([1]; Sucrose 9.6%, Sodium deoxycholate, 1%, 25°C, 2 months): - (- dissolved)
Re-solubility after storage (by naked eye) ([1]; Sucrose 9.6%, Sodium deoxycholate, 1%, 25°C, 4 months): - (- dissolved)
Re-solubility after storage (by naked eye) ([1]; Sucrose 9.6%, Sodium deoxycholate, 2%, 25°C, 2 months): - (- dissolved)
Re-solubility after storage (by naked eye) ([1]; Sucrose 9.6%, Sodium deoxycholate, 2%, 25°C, 4 months): - (- dissolved)
Re-solubility after storage (by naked eye) ([1]; Sucrose 19.2%, Sodium deoxycholate, 0.1%, 25°C, 2 months): + (+ not dissolved (or deposited))
Re-solubility after storage (by naked eye) ([1]; Sucrose 19.2%, Sodium deoxycholate, 0.2%, 25°C, 2 months): + (+ not dissolved (or deposited))
Re-solubility after storage (by naked eye) ([1]; Sucrose 19.2%, Sodium deoxycholate, 0.5%, 25°C, 2 months): + (+ not dissolved (or deposited))
Re-solubility after storage (by naked eye) ([1]; Sucrose 19.2%, Sodium deoxycholate, 1%, 25°C, 2 months): + (+ not dissolved (or deposited))
Re-solubility after storage (by naked eye) ([1]; Sucrose 19.2%, Sodium deoxycholate, 2%, 25°C, 2 months): + (+ not dissolved (or deposited))
Re-solubility immediately after lyophilization ([2]; Fructose 5%): + (+ not dissolved (or deposited))
Re-solubility immediately after lyophilization ([2]; Fructose 10%): + (+ not dissolved (or deposited))
Re-solubility immediately after lyophilization ([2]; Glucose 5%): - (- dissolved)
Re-solubility immediately after lyophilization ([2]; Glucose 10%): + (+ not dissolved (or deposited))
Re-solubility immediately after lyophilization ([2]; Lactose 5%): + (+ not dissolved (or deposited))
Re-solubility immediately after lyophilization ([2]; Lactose 10%): + (+ not dissolved (or deposited))
Re-solubility immediately after lyophilization ([2]; Maltose 1.5%): + (+ not dissolved (or deposited))
Re-solubility immediately after lyophilization ([2]; Maltose 3%): + (+ not dissolved (or deposited))
Re-solubility immediately after lyophilization ([2]; Mannitol 5%): + (+ not dissolved (or deposited))
Re-solubility immediately after lyophilization ([2]; Mannitol 10%): - (- dissolved)
Re-solubility immediately after lyophilization ([2]; Sorbitol 5%): + (+ not dissolved (or deposited))
Re-solubility immediately after lyophilization ([2]; Sorbitol 10%): + (+ not dissolved (or deposited))
Re-solubility immediately after lyophilization ([2]; Sucrose 4.8%): - (- dissolved)
Re-solubility immediately after lyophilization ([2]; Sucrose 9.6%): - (- dissolved)
Re-solubility immediately after lyophilization ([2]; Xylitol 4.3%): + (+ not dissolved (or deposited))
Re-solubility immediately after lyophilization ([2]; Xylitol 8.6%): + (+ not dissolved (or deposited))
Variation with the passage of time after storage (by naked eye) ([3]; Polysorbate 20 0.1%, 2 weeks): +
Variation with the passage of time after storage (by naked eye) ([3]; Polysorbate 20 0.2%, 2 weeks): +
Variation with the passage of time after storage (by naked eye) ([3]; Polysorbate 20 0.3%, 1 month): +
Variation with the passage of time after storage (by naked eye) ([3]; Polysorbate 20 0.3%, 2 weeks): -
Variation with the passage of time after storage (by naked eye) ([3]; Polysorbate 20 0.5%, 1 month): +
Variation with the passage of time after storage (by naked eye) ([3]; Polysorbate 20 0.5%, 2 weeks): -
Variation with the passage of time after storage (by naked eye) ([3]; Polysorbate 20 1.0%, 1 month): +
Variation with the passage of time after storage (by naked eye) ([3]; Polysorbate 20 1.0%, 2 weeks): -
Variation with the passage of time after storage (by naked eye) ([3]; Polysorbate 20 2.0%, 1 month): +
Variation with the passage of time after storage (by naked eye) ([3]; Polysorbate 20 2.0%, 2 weeks): -
Variation with the passage of time after storage (by naked eye) ([3]; Polysorbate 20 4.0%, 1 month): +
Variation with the passage of time after storage (by naked eye) ([3]; Polysorbate 20 4.0%, 2 weeks): -
Variation with the passage of time after storage (by naked eye) ([3]; Polysorbate 20 8.0%, 1 month): +
Variation with the passage of time after storage (by naked eye) ([3]; Polysorbate 20 8.0%, 2 weeks): -
Compound: CCCCCCCCCCCCCCCCCCCCCCCCCC(=O)N[C@@H](CO[C@H]1O[C@H](CO)[C@H](O)[C@H](O)[C@H]1O)[C@H](O)[C@H](O)CCCCCCCCCCCCCC [KRN7000, (2S,3S,4R)-1-(α-D-galactopyranosyloxy)-2-hexacosanoylamino-3,4-octadecanediol]
